We go through 34 compounds from article PMC3265452 (PLoS Neglected Tropical Diseases, 2012).

Structures are written as SMILES. Where a name gives a salt, the structure may show the parent alone.

The target in one experiment is AaDOP2 (Aedes aegypti, UniProt H6D5H2). The experiment in a line: AaDOP2 antagonist screen of the LOPAC1280 library (HEK-CRELuc-Aadop2 cells, luminescence). Format: cell-based.
Sequence of AaDOP2 (H6D5H2 1-476): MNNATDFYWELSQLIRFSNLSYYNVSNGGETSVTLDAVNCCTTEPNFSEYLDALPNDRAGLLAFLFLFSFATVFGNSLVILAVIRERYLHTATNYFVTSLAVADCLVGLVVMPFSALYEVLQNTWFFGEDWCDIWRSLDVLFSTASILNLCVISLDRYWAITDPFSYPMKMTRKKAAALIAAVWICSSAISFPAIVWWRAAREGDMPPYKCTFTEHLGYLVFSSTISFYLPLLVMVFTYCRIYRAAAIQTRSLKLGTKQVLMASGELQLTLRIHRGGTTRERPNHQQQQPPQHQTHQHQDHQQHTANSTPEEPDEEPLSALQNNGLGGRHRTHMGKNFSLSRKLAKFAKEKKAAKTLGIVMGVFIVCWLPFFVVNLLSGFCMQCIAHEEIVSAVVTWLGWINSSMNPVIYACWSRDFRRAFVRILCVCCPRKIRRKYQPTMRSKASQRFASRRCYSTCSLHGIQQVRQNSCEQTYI
Conditions: not given
For the compound `CC(C)[C@@]1(NC(=O)[C@@H]2C[C@@H]3c4cccc5[nH]cc(c45)C[C@H]3N(C)C2)O[C@@]2(O)[C@@H]3CCCN3C(=O)[C@H](Cc3ccccc3)N2C1=O.CS(=O)(=O)O` [Compound 465, Dihydroergocristine methanesulfonate], the “Compound effect (percent receptor signaling in presence of test compound, relative lux units relative to the SCH23390 control)” value is on record as 32. Still for that read-out and setting: the same measure for `Nc1cc(=O)[nH]c(N)n1` [Compound 466, 2,6-Diamino-4-pyrimidinone]: 114. On the same count and under the same terms, the same measure for `CN1C2CCC1CC(OC(c1ccc(F)cc1)c1ccc(F)cc1)C2.Cl` (stereo not drawn) [Compound 468, 4',4''-Difluor-3alpha-(diphenylmethoxy)tropane hydrochloride]: 123; for `CC(C)C[C@H](NC(=O)[C@H](O)[C@H](N)Cc1ccccc1)C(=O)O` [Compound 471, Epibestatin hydrochloride]: 107; for `CCc1cccc2c3c([nH]c12)C(CC)(CC(=O)O)OCC3` (centres unmarked) [Compound 472, Etodolac]: 98. Same read-out and setting: then `CSc1ccc(C(=O)c2[nH]c(=O)[nH]c2C)cc1` [Compound 473, Enoximone], with 103; and `COc1cc([C@@H]2c3cc4c(cc3[C@@H](O[C@@H]3O[C@@H]5CO[C@@H](C)O[C@H]5[C@H](O)[C@H]3O)[C@H]3COC(=O)[C@H]23)OCO4)cc(OC)c1O` [Compound 474, Etoposide], with 90; and `CCOC(=O)c1cnc2c(cnn2CC)c1NN=C(C)C` [Compound 476, Etazolate hydrochloride], with 136. Turning to `CC[C@H]1CN2CCc3cc(OC)c(OC)cc3[C@@H]2C[C@@H]1C[C@H]1NCCc2cc(OC)c(OC)cc21` [Compound 478, Emetine dihydrochloride hydrate], the “Compound effect (percent receptor signaling in presence of test compound, relative lux units relative to the SCH23390 control)” value is given as 14. With `CC(C)C[C@H](NC(=O)[C@H]1O[C@@H]1C(=O)O)C(=O)NCCCCN=C(N)N` [Compound 480, E-64], the “Compound effect (percent receptor signaling in presence of test compound, relative lux units relative to the SCH23390 control)” value was determined as 112.

Regarding `CN[C@@H](C)[C@H](O)c1ccccc1.CN[C@@H](C)[C@H](O)c1ccccc1.O=S(=O)(O)O` [Compound 483, (-)-Ephedrine hemisulfate], the “Compound effect (percent receptor signaling in presence of test compound, relative lux units relative to the SCH23390 control)” value is 60. With `CC[N+](C)(C)c1cccc(O)c1` [Compound 484, Edrophonium chloride], the “Compound effect (percent receptor signaling in presence of test compound, relative lux units relative to the SCH23390 control)” value came to 118. On the same count and under the same terms, the same measure for `CCC1(C2=NCCN2)Cc2ccccc2O1` (centres unmarked) [Compound 485, Efaroxan hydrochloride]: 74.

`Cc1c2ccncc2c(C)c2c1[nH]c1ccccc12` [Compound 486, Ellipticine]: the “Compound effect (percent receptor signaling in presence of test compound, relative lux units relative to the SCH23390 control)” value amounted to 98. On the same count and under the same terms, the same measure for `O=c1c2ccccc2[se]n1-c1ccccc1` [Compound 487, Ebselen]: 102. As for `CCN1C(=O)C=CC1=O` [Compound 490, N-Ethylmaleimide], the “Compound effect (percent receptor signaling in presence of test compound, relative lux units relative to the SCH23390 control)” value is 87.

Consider `O=C(O)CN(CCOCCOCCN(CC(=O)O)CC(=O)O)CC(=O)O` [Compound 492, Ethylene glycol-bis(2-aminoethylether)-N,N,N',N'-tetraacetic acid], for which the “Compound effect (percent receptor signaling in presence of test compound, relative lux units relative to the SCH23390 control)” value is reported as 121. Consider `CCC1(C)CC(=O)NC1=O` (centres unmarked) [Compound 494, Ethosuximide], for which the “Compound effect (percent receptor signaling in presence of test compound, relative lux units relative to the SCH23390 control)” value is 146. Same read-out and setting: the same measure for `O=C(O)[C@@H]1[C@H](C(=O)O)[C@H]2CC[C@@H]1O2` [Compound 495, Endothall]: 117. Turning to `Cc1cc(O)c2c(c1)C(=O)c1cc(O)cc(O)c1C2=O` [Compound 496, Emodin], the “Compound effect (percent receptor signaling in presence of test compound, relative lux units relative to the SCH23390 control)” value came out at 49.

Turning to `CNC(=O)Oc1ccc2c(c1)[C@]1(C)CCN(C)[C@@H]1N2C` [Compound 497, (-)-Physostigmine], the “Compound effect (percent receptor signaling in presence of test compound, relative lux units relative to the SCH23390 control)” value is recorded as 93. The same measure, in the same setting: the same measure for `CCCN(CC1CC1)c1nc(C)nc(Nc2c(Cl)cc(Cl)cc2Cl)c1Cl` [Compound 498, NBI 27914]: 90; for `C[C@]12CC[C@@H]3c4ccc(O)cc4CC[C@H]3[C@@H]1CC[C@@H]2O` [Compound 499, beta-Estradiol]: 112; for `C[C@]12CC[C@@H]3c4ccc(O)cc4CC[C@H]3[C@@H]1CCC2=O` [Compound 500, Estrone]: 91. With `COC(=O)c1cc2c(cn1)[nH]c1ccccc12` [Compound 501, Methyl beta-carboline-3-carboxylate], the “Compound effect (percent receptor signaling in presence of test compound, relative lux units relative to the SCH23390 control)” value was determined as 118. Still for that read-out and setting: the same measure for `CNC(=O)c1cc2c(cn1)[nH]c1ccccc12` [Compound 502, N-Methyl-beta-carboline-3-carboxamide]: 80; for `CCc1c(C(=O)OC)ncc2[nH]c3cc(OC)c(OC)cc3c12` [Compound 503, Methyl 6,7-dimethoxy-4-ethyl-beta-carboline-3-carboxylate]: 79.

Staying with this experiment, now noted: 10 µM compound, 300 nM dopamine, 2 hr; hit = compound effect <20.
Take `CCCN1CCC[C@@H](c2cccc(C#N)c2)C1.Cl` [Compound 469, S(-)-DS 121 hydrochloride]: the “Compound effect (percent receptor signaling in presence of test compound, relative lux units relative to the SCH23390 control)” value came to 94%. Still for that read-out and setting: the same measure for `CCN(CC)C(=O)c1ccc(O)c(OC)c1` [Compound 470, Vanillic acid diethylamide]: 101%; for `CCCCCCCCCCCCCCCCCCOCC(COP(=O)([O-])OCC[N+](C)(C)C)OC` (centres unmarked) [Compound 475, ET-18-OCH3]: 113%. On the same count and under the same terms, then `Nc1ncnc2c1c(-c1ccc(Oc3ccccc3)cc1)cn2C1CCCC1` [Compound 477, 7-Cyclopentyl-5-(4-phenoxy)phenyl-7H-pyrrolo[2,3-d]pyrimidin-4-ylamine], with 76%.

With `Br.CCSC(=N)N` [Compound 482, S-Ethylisothiourea hydrobromide], the “Compound effect (percent receptor signaling in presence of test compound, relative lux units relative to the SCH23390 control)” value was found to be 104%.

With `CCc1cc(Cl)c(OC)c(C(=O)NC[C@@H]2CCCN2CC)c1O.Cl` [Compound 505, S-(-)-Eticlopride hydrochloride], the “Compound effect (percent receptor signaling in presence of test compound, relative lux units relative to the SCH23390 control)” value came to 85%.

In the case of `OC[C@H]1O[C@@H](n2cnc3c(N[C@H]4CC5CCC4C5)ncnc32)[C@H](O)[C@@H]1O` (stereo partly drawn) [Compound 506, (S)-ENBA], the “Compound effect (percent receptor signaling in presence of test compound, relative lux units relative to the SCH23390 control)” value is reported as 112%.

The experiment is the same for the next values; noted with them: read-out: % of the SCH23390 effect (percent inhibition of receptor response relative to the SCH23390 control).
Regarding `CC[C@H]1CN2CCc3cc(OC)c(OC)cc3[C@@H]2C[C@@H]1C[C@H]1NCCc2cc(OC)c(OC)cc21` [Compound 478, Emetine dihydrochloride hydrate], the inhibition (usually the percentage by which the read-out fell short of the control) at 10 µM came to 86%.
